{
  "source": "patent US20110218515A1",
  "about": "“Methods for Treating Acute Myocardial Infarctions and Associated Disorders” (The Regents of the University of California, priority 2009, published 2011)",
  "tested_on": "congestive heart failure dogs, coronary perfused left ventricular preparation",
  "assay": "VF organization index analysis, pacing-induced heart failure dogs",
  "type": "in vivo",
  "set-up": "key to OI Spatial CoV / OI Temporal CoV: coefficient of variance = SD/mean",
  "conditions": "CHF dogs with PFD",
  "excerpt": "Animal Models: Twenty-four dogs weighing 25-30 Kg were divided into three groups: control (n=11), congestive heart failure (n=7), and congestive heart failure with the antifibrotic drug pirfenidone (n=6). Heart Failure (CHF) was induced in 7 dogs via four weeks of rapid ventricular pacing via a lead placed in the RV and pulse generator set to pace at 240 bpm followed by ablation of the AV node to create complete heart block, as described in Li, et al., Circulation 1999; 100:87-95. Ventricular function was monitored weekly with transthoracic echocardiography for 4 weeks. At 4 weeks, the optical mapping study was performed.\nHeart Failure with Pirfenidone (PFD): Heart failure was induced in 6 dogs as described above and PFD was administered as described in Lee et al., Circulation 2006; 114; 1703-12. Oral PFD (800 mg 3 times per day; InterMune, Brisbane, Calif.) was started 2 days before the initiation of pacing and was discontinued >6 half-lives (24 hours) before the optical mapping study.\nWith an optical mapping system described in Wu et al., J Cardiovasc Electrophysiol 1998; 9:1336-47, optical recordings were then made from 4-cm^2 area on 3 surfaces of the preparation (epicardial, endocardial (including the papillary muscle, and transmural) by a 16×16 photodiode array (C4657 Hamamatsu, Bridgewater, N.J.) that recorded 256 simultaneous optical action potentials. During optical recordings from a preparation, contractility was blocked with 15 mM 2,3-butadione monoxime (BDM; Sigma-Aldrich)11. Plunge electrodes were placed on the recording surface around the field of view for both pacing and monitoring. Two plunge electrodes were dedicated for recording a bipolar signal for monitoring the electrical activity of the preparation. VF was initiated with either extra stimuli or with rapid burst pacing at a cycle length of 50 ms, a pulse width of 9.9 ms, and an output of 9.9 mA. Several 4-s episodes of VF were recorded on each surface in each preparation. Activation movies of the VF were then viewed, and the activation patterns were determined. After termination of VF, signals were obtained during pacing at 250 ms and isochronal maps of activation were constructed to look at conduction. Activation patterns and wave-front direction during VF were determined from raw fluorescence movies (isopotential). […] VF was defined as rapid and irregular activations on the bipolar signal used for monitoring the electrical activity of the preparation.\nSignal Processing and Frequency Domain Analysis: The signals obtained from the optical mapping recordings were sampled at 2,000 Hz, and for each signal the dominant frequency (DF) was determined and the organization was calculated as described Everett, et al., IEEE Trans Biomed Eng 2001; 48:969-78. Briefly, a fast Fourier transform (FFT) was calculated on the digitally filtered waveform. The data were detrended and multiplied by a Hamming window. The largest peak of the resulting magnitude spectrum was identified, and the positions of the harmonic peaks were determined on the basis of its position. The areas under the largest peak and three of its harmonic peaks were each calculated over a 1-Hz window. This produced an area under four peaks. The total area of the spectrum was calculated from 2 Hz up to but not including the fifth harmonic peak. The ratio of the power under the harmonic peaks to the total power in this range was calculated, and the resulting number was defined as the organization index (OI). The OI was theorized to represent the organization of AF for that signal at that period in time. To calculate the variance of the DFs, spatial coefficient of variance (SD/mean) of the DFs during a single episode of AF among all recording sites and temporal coefficient of variance of average DFs from among AF episodes for each mapping field within each preparation were calculated. Discrete, stable, high frequency areas were noted. […]",
  "data": [
    {"smiles": "Cc1ccc(=O)n(-c2ccccc2)c1", "note": "[pirfenidone]", "values": [
      {"measurement": "Max OI", "setting": "Endocardium", "value": "0.61 ± 0.05"},
      {"measurement": "Mean OI", "setting": "Endocardium", "value": "0.45 ± 0.05"},
      {"measurement": "OI Spatial CoV", "setting": "Endocardium", "value": "0.16 ± 0.03"},
      {"measurement": "OI Temporal CoV", "setting": "Endocardium", "value": "0.13 ± 0.01"},
      {"measurement": "Max OI", "setting": "Epicardium", "value": "0.62 ± 0.05"},
      {"measurement": "Mean OI", "setting": "Epicardium", "value": "0.44 ± 0.05"},
      {"measurement": "OI Spatial CoV", "setting": "Epicardium", "value": "0.17 ± 0.01"},
      {"measurement": "OI Temporal CoV", "setting": "Epicardium", "value": "0.14 ± 0.01"},
      {"measurement": "Max OI", "setting": "Transmural", "value": "0.65 ± 0.06"},
      {"measurement": "Mean OI", "setting": "Transmural", "value": "0.48 ± 0.05"},
      {"measurement": "OI Spatial CoV", "setting": "Transmural", "value": "0.17 ± 0.03"},
      {"measurement": "OI Temporal CoV", "setting": "Transmural", "value": "0.13 ± 0.01"}
    ]}
  ]
}
